Here are results for twelve compounds from patent US10981926B2 (Janssen Pharmaceutica NV, priority 2016, dated 2021).

Test [1] concerns the target T1, wild-type Androgen Receptor (AR-wt) (Homo sapiens (Human), UniProt P10275). The test is described as follows: LNCaP-AR-wt ANT reporter assay (antagonist mode). The test is classed as cell-based. Particulars: for IC50 / LNCaP-AR-wt ANT pIC50: antagonist mode, pIC50 = −Log10(IC50 in Molar); for IC50: read-out: LNCaP-AR-wt ANT pIC50 (converted); for Emax: maximum % inhibition of R1881 control response over the tested concentration range, read-out: LNCaP-AR-wt ANT MAX % Inh. On the technique in general: Reporter assays use an easily measured gene product as a stand-in for the process of interest.

For test [2], the target named is T2, F876L mutant Androgen Receptor (AR-F876L) (Homo sapiens (Human), UniProt P10275, F877L). As to the kind of experiment: LNCaP-AR-F876L ANT reporter assay (antagonist mode). Type of test: cell-based. Particulars: for IC50: read-out: LNCaP-AR-F876L ANT pIC50 (converted); for Emax: maximum % inhibition of R1881 control response over the tested concentration range, read-out: LNCaP-AR-F876L ANT MAX % Inh.

The target of test [3] is T1, wild-type Androgen Receptor (AR-wt). As to the kind of experiment: LNCaP-AR-wt AG reporter assay (agonist mode). Type of test: cell-based. Particulars: for EC50: read-out: LNCaP-AR-wt AG pEC50 (converted); for Emax: maximum % stimulation (agonist response) over the tested concentration range, read-out: LNCaP-AR-wt AG MAX % Stim.
A further test deals with rGABA-gated Cl− channel. As to the kind of experiment: GABA-Gated Cl Channel Antagonist Radioligand Binding Assay. Particulars: 10 μM single point, [35S]-TBPS, cerebral cortex membrane homogenates. Details: species or system rat. In outline:
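Values give percent inhibition of control specific […] (3 nM) binding at a single 10 μM compound concentration. Cerebral cortex membranes, 120 min, 22° C, phosphate buffer pH 7.4 with 500 mM NaCl; 20 μM picrotoxinin sets nonspecific binding; filtration and scintillation read-out.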

Test [4] deals with T2, F876L mutant Androgen Receptor (AR-F876L). The test is described as follows: LNCaP-AR-F876L AG reporter assay (agonist mode). The test is classed as cell-based. The note with it: for EC50: read-out: LNCaP-AR-F876L AG pEC50 (converted); for Emax: maximum % stimulation (agonist response) over the tested concentration range, read-out: LNCaP-AR-F876L AG MAX % Stim.
[5] abbreviates: antagonist mode, pIC50 = −Log10(IC50 in Molar).
[6] abbreviates: agonist mode, pEC50 = −Log10(EC50 in Molar).

Each structure is given as a SMILES string.

T2 sequence (P10275 whole entry F877L): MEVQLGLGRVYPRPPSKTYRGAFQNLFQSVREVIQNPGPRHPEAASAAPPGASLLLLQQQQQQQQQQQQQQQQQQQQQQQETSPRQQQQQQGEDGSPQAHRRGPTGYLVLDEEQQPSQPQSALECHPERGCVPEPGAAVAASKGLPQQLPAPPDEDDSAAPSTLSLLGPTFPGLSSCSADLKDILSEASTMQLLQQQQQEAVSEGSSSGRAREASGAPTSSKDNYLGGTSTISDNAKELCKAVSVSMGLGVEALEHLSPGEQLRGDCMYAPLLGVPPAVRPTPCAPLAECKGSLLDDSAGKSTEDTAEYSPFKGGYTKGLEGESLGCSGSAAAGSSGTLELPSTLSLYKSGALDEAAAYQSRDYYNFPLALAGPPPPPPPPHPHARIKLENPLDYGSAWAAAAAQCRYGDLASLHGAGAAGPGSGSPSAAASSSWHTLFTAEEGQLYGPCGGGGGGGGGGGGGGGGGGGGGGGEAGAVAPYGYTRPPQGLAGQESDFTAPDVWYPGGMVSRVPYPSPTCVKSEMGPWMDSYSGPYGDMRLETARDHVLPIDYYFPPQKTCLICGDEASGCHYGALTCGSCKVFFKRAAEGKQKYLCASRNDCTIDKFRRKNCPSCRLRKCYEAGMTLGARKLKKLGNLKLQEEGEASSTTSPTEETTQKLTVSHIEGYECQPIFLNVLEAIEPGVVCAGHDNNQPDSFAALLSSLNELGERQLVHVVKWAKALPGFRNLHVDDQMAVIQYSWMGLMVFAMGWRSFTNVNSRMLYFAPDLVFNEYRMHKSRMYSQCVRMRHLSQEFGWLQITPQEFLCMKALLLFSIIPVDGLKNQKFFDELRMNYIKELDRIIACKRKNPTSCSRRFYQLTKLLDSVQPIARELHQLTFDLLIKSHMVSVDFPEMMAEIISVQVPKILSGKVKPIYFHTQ
T1 sequence (P10275 whole entry): as the sequence (P10275 whole entry F877L) above, with L877F counted along it

Turning to `Cn1cc2cc(N3C(=S)N(c4cnc(C#N)c(C(F)(F)F)c4)C(=O)C34CCC4)ccc2n1` [Cpd 174, 5-[8-(2-methylindazol-5-yl)-5-oxo-7-thioxo-6,8-diazaspiro[3.4]octan-6-yl]-3-(trifluoromethyl)pyridine-2-carbonitrile], the IC50 in test [1] was 407 nM; in test [2] (setting [5]), 219 nM. Moreover, the Emax in test [1] was 102%; in test [2], 101%; in test [3] it was 0%; in test [4] it was 0.1%. For the same compound, the EC50 in test [3] (setting [6]) and in test [4] (setting [6]) was over 15100 nM in each case. Further, in the test with rGABA-gated Cl− channel, the “rGABA-gated Cl− channel % inh @10 μM” value stood at 94.9%.
On to `N#Cc1ncc(N2C(=O)C3(CCC3)N(c3ccc(OCC4CNCCO4)cc3)C2=S)cc1C(F)(F)F` (stereo not drawn) [Cpd 74, 5-[8-[4-(morpholin-2-ylmethoxy)phenyl]-5-oxo-7-thioxo-6,8-diazaspiro[3.4]octan-6-yl]-3-(trifluoromethyl)pyridine-2-carbonitrile], for which the IC50 in test [1] was 72.4 nM; in test [2] (setting [5]) it was 21.4 nM. In addition, the Emax in test [1] was 100%; in test [2] it was 98.1%; in test [3], 0.2%; in test [4], 1.5%. Moreover, the EC50 in test [3] (setting [6]) and in test [4] (setting [6]) was over 15100 nM each time. For the same compound, the “rGABA-gated Cl− channel % inh @10 μM” value in the test on rGABA-gated Cl− channel stood at 13.9%.
On to `N#Cc1ncc(N2C(=O)C3(CCC3)N(c3ccc(OC4CC5(CNC5)C4)cc3)C2=S)cc1C(F)(F)F` [Cpd 86, 5-[8-[4-(6-azaspiro[3.3]heptan-2-yloxy)phenyl]-5-oxo-7-thioxo-6,8-diazaspiro[3.4]octan-6-yl]-3-(trifluoromethyl)pyridine-2-carbonitrile], for which the IC50 in test [1] was 123 nM; in test [2] (setting [5]), 75.9 nM. The Emax in test [1] is 100%; in test [2] it was 99.7%; in test [3], 0%; in test [4] it was 0.1%. In addition, the EC50 in test [3] (setting [6]) and in test [4] (setting [6]) was over 15100 nM throughout. The “rGABA-gated Cl− channel % inh @10 μM” value with rGABA-gated Cl− channel worked out at 15.3%.
On to `Cc1cc(N2C(=O)C3(CCC3)N(c3ccc(OC4CCNCC4)nc3)C2=S)cnc1C#N` [Cpd 87, 3-methyl-5-[5-oxo-8-[6-(4-piperidyloxy)-3-pyridyl]-7-thioxo-6,8-diazaspiro[3.4]octan-6-yl]pyridine-2-carbonitrile], for which, in test [1], the “LNCaP-AR-wt ANT pIC50” value turned out to be 6.92. For the same compound, the Emax in test [1] was 101%; in test [2] it was 100%; in test [3], 0.1%; in test [4], 0.1%. Moreover, the “LNCaP-AR-F876L ANT pIC50” value in test [2] (setting [5]) came out at 7.09. Also, the EC50 in test [3] (setting [6]) and in test [4] (setting [6]) was over 15100 nM each time. The “rGABA-gated Cl− channel % inh @10 μM” value with rGABA-gated Cl− channel is recorded as −14.8%.
Turning to `N#Cc1ncc(N2C(=O)C3(CCC3)N(c3ccc(OC4CCN(CCO)CC4)nc3)C2=S)cc1Cl` [Cpd 79, 3-chloro-5-[8-[6-[[1-(2-hydroxyethyl)-4-piperidyl]oxy]-3-pyridyl]-5-oxo-7-thioxo-6,8-diazaspiro[3.4]octan-6-yl]pyridine-2-carbonitrile], the IC50 was 6.76 nM in test [1] and 8.13 nM in test [2] (setting [5]). Besides, the Emax in test [1] turned out to be 101%; in test [2] it was 98.5%; in test [3] it was 1.2%; in test [4], 1.3%. Also, the EC50 in test [3] (setting [6]) and in test [4] (setting [6]) was over 15100 nM throughout. The “rGABA-gated Cl− channel % inh @10 μM” value in the test with rGABA-gated Cl− channel is on record as 11.5%.
As to `CNC(=O)N1CCN(Cc2ccc(N3C(=S)N(c4cnc(C#N)c(C(F)(F)F)c4)C(=O)C34CCC4)cc2)CC1` [Cpd 53, 4-[[4-[6-[6-cyano-5-(trifluoromethyl)-3-pyridyl]-5-oxo-7-thioxo-6,8-diazaspiro[3.4]octan-8-yl]phenyl]methyl]-N-methyl-piperazine-1-carboxamide], the IC50 in test [1] was 123 nM; in test [2] (setting [5]), 45.7 nM. Moreover, the Emax worked out at 102% in test [1], 100% in test [2], 0.4% in test [3] and 0.1% in test [4]. Moreover, the EC50 in test [3] (setting [6]) and in test [4] (setting [6]) was over 15100 nM each time. For the same compound, the “rGABA-gated Cl− channel % inh @10 μM” value in the test with rGABA-gated Cl− channel was determined as 52.4%.
On to `N#Cc1ncc(N2C(=O)C3(CCC3)N(c3ccc4nn(CCO)cc4c3)C2=S)cc1C(F)(F)F` [Cpd 161, 5-[8-[2-(2-hydroxyethyl)indazol-5-yl]-5-oxo-7-thioxo-6,8-diazaspiro[3.4]octan-6-yl]-3-(trifluoromethyl)pyridine-2-carbonitrile], for which the IC50 in test [1] is 1050 nM; in test [2] (setting [5]), 468 nM. Moreover, the Emax was 97.2% in test [1], 99.3% in test [2], 0.2% in test [3] and 0.3% in test [4]. In addition, the EC50 in test [3] (setting [6]) and in test [4] (setting [6]) was over 15100 nM throughout. Also, in the test with rGABA-gated Cl− channel, the “rGABA-gated Cl− channel % inh @10 μM” value is 77.9%.
Take `CCOC(=O)N1CCN(c2ccc(N3C(=S)N(c4cnc(C#N)c(C(F)(F)F)c4)C(=O)C34CCC4)cc2)CC1` [Cpd 58, Ethyl 4-[4-[6-[6-cyano-5-(trifluoromethyl)-3-pyridyl]-5-oxo-7-thioxo-6,8-diazaspiro[3.4]octan-8-yl]phenyl]piperazine-1-carboxylate]: the IC50 in test [1] was 87.1 nM; in test [2] (setting [5]), 93.3 nM. The Emax in test [1] was determined as 101%; in test [2], 98.1%; in test [3] it was 0%; in test [4], 1%. For the same compound, the EC50 in test [3] (setting [6]) and in test [4] (setting [6]) was over 15100 nM each time. Also, in the test on rGABA-gated Cl− channel, the “rGABA-gated Cl− channel % inh @10 μM” value came to 88.1%.
As to `CC(=O)N1CCC(n2ncc3cc(N4C(=S)N(c5cnc(C#N)c(C(F)(F)F)c5)C(=O)C45CCC5)ccc32)CC1` [Cpd 131, 5-[8-[1-(1-acetyl-4-piperidyl)indazol-5-yl]-5-oxo-7-thioxo-6,8-diazaspiro[3.4]octan-6-yl]-3-(trifluoromethyl)pyridine-2-carbonitrile], the IC50 was 589 nM in test [1] and 708 nM in test [2] (setting [5]). Further, the Emax is 101% in test [1], 97.9% in test [2], -0.1% in test [3] and 0.3% in test [4]. The EC50 in test [3] (setting [6]) and in test [4] (setting [6]) was over 15100 nM each time. Besides, in the test on rGABA-gated Cl− channel, the “rGABA-gated Cl− channel % inh @10 μM” value was found to be 97.4%.
As to `CN1C2CCC1C(F)C(Oc1ccc(N3C(=S)N(c4cnc(C#N)c(C(F)(F)F)c4)C(=O)C34CCC4)cc1)C2` (stereo not drawn) [Cpd 94, 5-[8-[4-[(4-fluoro-8-methyl-8-azabicyclo[3.2.1]octan-3-yl)oxy]phenyl]-5-oxo-7-thioxo-6,8-diazaspiro[3.4]octan-6-yl]-3-(trifluoromethyl)pyridine-2-carbonitrile], the “LNCaP-AR-wt ANT pIC50” value in test [1] was determined as 6.78. The Emax in test [1] came to 101%; in test [2] it was 101%; in test [3] it was 0.8%; in test [4], 0.2%. The IC50 in test [2] (setting [5]) was 70.8 nM. In addition, the “LNCaP-AR-wt AG pEC50” value in test [3] (setting [6]) is under 4.82. Moreover, the “rGABA-gated Cl− channel % inh @10 μM” value in the test on rGABA-gated Cl− channel is 91.0%. Besides, in test [4] (setting [6]), the “LNCaP-AR-F876L AG pEC50” value was under 4.82.
In the case of `CN(C)C1CCC(Oc2ccc(N3C(=S)N(c4cnc(C#N)c(C(F)(F)F)c4)C(=O)C34CCC4)cc2)CC1` (stereo not drawn) [Cpd 81, 5-[8-[4-[4-(dimethylamino)cyclohexoxy]phenyl]-5-oxo-7-thioxo-6,8-diazaspiro[3.4]octan-6-yl]-3-(trifluoromethyl)pyridine-2-carbonitrile], the IC50 in test [1] is 28.2 nM; in test [2] (setting [5]), 17 nM. The Emax in test [1] was found to be 102%; in test [2] it was 101%; in test [3] it was 0.4%; in test [4], 0.1%. Besides, the EC50 in test [3] (setting [6]) and in test [4] (setting [6]) was over 15100 nM throughout. Besides, the “rGABA-gated Cl− channel % inh @10 μM” value in the test with rGABA-gated Cl− channel stood at 28.8%.
In the case of `N#CCN1CCC(Oc2ccc(N3C(=S)N(c4cnc(C#N)c(Cl)c4)C(=O)C34CCC4)cn2)CC1` [Cpd 65, 3-chloro-5-[8-[6-[[1-(cyanomethyl)-4-piperidyl]oxy]-3-pyridyl]-5-oxo-7-thioxo-6,8-diazaspiro[3.4]octan-6-yl]pyridine-2-carbonitrile], the values for the IC50 in test [1] and in test [2] (setting [5]) were 7.24 nM and 8.51 nM, respectively. The Emax in test [1] amounted to 101%; in test [2] it was 99.3%; in test [3], 0.4%; in test [4], 0.4%. The EC50 in test [3] (setting [6]) and in test [4] (setting [6]) was over 15100 nM in each case. In addition, the “rGABA-gated Cl− channel % inh @10 μM” value in the test with rGABA-gated Cl− channel turned out to be 67.2%.
